Values after ≈ are worked out from the molar mass of the structure shown. Where two headings read alike, the source gives them in different places.
Experiments:
parasite cell growth = experiment: Parasite cell growth inhibition; format: cell-based
Source text: We explored the hypothesis of whether analogs of pyrophosphate could block pyrophosphatase enzymes and/or inhibit cellular growth or function. We used certain bisphosphonate compounds that are currently applied in bone resorption therapy. The compounds included pamidronate (Aredia®, Novartis), alendronate (Fosamax®, Merck), and risedronate (Actonel®, Procter & Gamble). […] Without wishing to be bound by a particular theory, the compounds appeared to act as inhibitors of isoprenoid biosynthesis (FIG. 6).

cutaneous leishmaniasis = experiment: Treatment of cutaneous leishmaniasis in mice; format: in vivo
Source text: The average lesion size in treated mice was reduced during a time period of several weeks and in a dose-dependent manner relative to […] mice.

pyrophosphatase enzymes = experiment: Pyrophosphatase inhibition; format: biochemical
Source text: We explored the hypothesis of whether analogs of pyrophosphate could block pyrophosphatase enzymes and/or inhibit cellular growth or function. We used certain bisphosphonate compounds that are currently applied in bone resorption therapy.

[1] = test system: human nasopharyngeal carcinoma cells; experiment: Toxicity testing in human nasopharyngeal carcinoma cells; format: cell-based
Experimental: We have obtained data for selected bisphosphonate compounds in the contexts of D. discoideum assays, human FPPS assays, gammadelta T cell stimulation assays, and bone resorption assays. […] Some toxicity testing was also performed. See Table 4 (in some instances, the same data depicted elsewhere herein, e.g., in Table 1, may be presented again to facilitate comparative analysis).

fetal mouse metatarsals = experiment: bone resorption assay: 45Ca2+ release from 17-day old fetal mouse metatarsals; format: cell-based; conditions: for IC50: Table 4
Experimental: Compounds are tested in a bone resorption assay: ^45Ca^2+ release from 17-day old fetal mouse metatarsals (ref. 37).

Dictyostelium discoideum = experiment: D. discoideum cell growth inhibition; format: cell-based
Source text: (§1) We then investigated the activity of each compound in inhibiting the FPPS from L. major, in Dictyostelium discoideum growth inhibition and in γδ T cell activation. We used the FPPS from L. major since this enzyme is the putative bisphosphonate target in several trypanosomatid species.

human FPPS = target: T1, human FPPS (Homo sapiens, UniProt P14324); experiment: human FPPS assay; format: biochemical
T1 sequence (P14324 1-419): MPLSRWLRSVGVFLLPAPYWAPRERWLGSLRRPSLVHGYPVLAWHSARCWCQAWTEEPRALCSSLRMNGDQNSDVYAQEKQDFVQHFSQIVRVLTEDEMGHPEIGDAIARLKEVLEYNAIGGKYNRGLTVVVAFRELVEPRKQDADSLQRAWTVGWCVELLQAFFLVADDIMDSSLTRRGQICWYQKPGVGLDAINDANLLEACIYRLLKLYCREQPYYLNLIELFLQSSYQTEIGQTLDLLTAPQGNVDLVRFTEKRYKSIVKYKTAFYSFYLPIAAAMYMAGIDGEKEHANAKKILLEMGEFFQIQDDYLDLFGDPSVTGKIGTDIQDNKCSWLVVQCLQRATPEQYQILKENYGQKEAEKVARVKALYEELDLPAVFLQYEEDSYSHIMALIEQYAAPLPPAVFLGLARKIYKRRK

T. cruzi = experiment: Activity against T. cruzi; format: cell-based; conditions: Trypanosoma cruzi; Table 5; read-out: (8) T. cruzi IC50
Source text: (§2) We have obtained data for selected bisphosphonate compounds against parasites including Trypanosoma brucei, Trypanosoma cruzi, and Leishmania major. […] See Table 5 (in some instances, the same data depicted elsewhere herein, e.g., in Table 1, may be presented again to facilitate comparative analysis).

Vγ2Vδ2 T cells = experiment: gammadelta T cell stimulation (TNF-α release assay); format: cell-based, human
Source text: as §1

L. major FPPS = target: T2, L. major FPPS (Leishmania major, UniProt Q4QBL1); experiment: biochemical; format: biochemical
T2 sequence (Q4QBL1 1-362): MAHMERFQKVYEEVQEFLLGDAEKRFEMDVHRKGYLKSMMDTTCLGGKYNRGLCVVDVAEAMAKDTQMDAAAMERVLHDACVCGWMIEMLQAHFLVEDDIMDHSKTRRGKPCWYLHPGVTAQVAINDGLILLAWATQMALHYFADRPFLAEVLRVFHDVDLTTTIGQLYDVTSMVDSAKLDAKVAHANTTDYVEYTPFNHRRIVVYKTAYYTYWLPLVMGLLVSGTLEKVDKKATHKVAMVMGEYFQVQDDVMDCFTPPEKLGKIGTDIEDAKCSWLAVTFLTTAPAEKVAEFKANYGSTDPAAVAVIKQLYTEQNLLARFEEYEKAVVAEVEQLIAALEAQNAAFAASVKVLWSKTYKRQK
Source text: as §1

[2] = target: T. brucei soluble vacuolar pyrophosphatase; experiment: T. brucei soluble vacuolar pyrophosphatase inhibition; format: biochemical, Trypanosoma brucei; conditions: Table 5; read-out: (9) T. brucei soluble vacuolar pyrophosphatase IC50
Source text: as §2

[3] = Dictyostelium discoideum, read-out: (1) D. discoideum IC50
[4] = Homo sapiens, T-cell, read-out: (3) gammadelta T cell stimulation EC50
[5] = Homo sapiens, T-cell, read-out: gammadelta T cell stimulation EC50
[6] = Table 4, read-out: (1) D. discoideum IC50
[7] = cell growth inhibition, Table 1 and text, read-out: D. discoideum IC50
[8] = TNF-α release, Table 1 and text, read-out: gammadelta T cell stimulation, EC50
[9] = Table 4, read-out: (3) gammadelta T cell stimulation EC50
[10] = Table 1 and text, read-out: L. major FPPS Ki
[11] = Table 3, additional testing, read-out: gammadelta T cell stimulation EC50
[12] = Table 5, read-out: (7) L. major FPPS Ki

SMILES | IC50 (Dictyostelium discoideum; [6]) [nM] | IC50 (Dictyostelium discoideum; [7]) [nM] | EC50 (Vγ2Vδ2 T cells; [8]) [nM] | EC50 (Vγ2Vδ2 T cells; [9]) [nM] | Ki (L. major FPPS; [10]) [nM] | EC50 (Vγ2Vδ2 T cells; [11]) [nM] | also measured
NCCC(O)(P(=O)(O)O)P(=O)(O)O [pamidronate] | – | – | – | – | – | – | parasite cell growth inhibition (parasite cell growth): did inhibit; treating cutaneous leishmaniasis (cutaneous leishmaniasis; mice): effective; average lesion size (cutaneous leishmaniasis; treated mice, several weeks, dose-dependent): reduced; inhibition of pyrophosphatases (pyrophosphatase enzymes): did not appear necessarily to inhibit
O=P([O-])(O)C(O)(C[n+]1ccccc1)P(=O)(O)O (stereo not drawn) [Compound 278] | – | – | – | – | – | – | IC50 ([1]; read-out: (5) Toxicity IC50): 300 µg/mL (≈ 1060 µM); IC50 (fetal mouse metatarsals; Mus musculus): 670 nM; IC50 (Dictyostelium discoideum; [3]): 2600 nM; IC50 (Dictyostelium discoideum; Dictyostelium discoideum, read-out: D. discoideum IC50): 2100 nM; IC50 (human FPPS): 1600 nM; IC50 (T. cruzi): 3.07 µg/mL (≈ 10.8 µM); EC50 (Vγ2Vδ2 T cells; [4]): 5100 nM; EC50 (Vγ2Vδ2 T cells; [5]): 4800 nM; EC50 (Vγ2Vδ2 T cells; Homo sapiens, T-cell, read-out: gammadelta T cell stimulation, EC50): 5100 nM
O=P([O-])(O)C(O)(C[n+]1cccc(-c2ccc(O)cc2)c1)P(=O)(O)O (stereo not drawn) [Compound 359] | 2900 | 2900 | 24000 | 24000 | 75 | – | –
COc1ccc[n+](CC(O)(P(=O)([O-])O)P(=O)(O)O)c1 (stereo not drawn) [Compound 446] | 6000 | 6000 | 4600 | – | 30 | – | IC50 (fetal mouse metatarsals): 370 nM
Cc1ccc[n+](CC(O)(P(=O)([O-])O)P(=O)(O)O)c1 (stereo not drawn) [Compound 297] | 2800 | 1500 | 4600 | – | 38 | 4900 | (5) Toxicity IC50 [1]: 5.3 µg/mL; IC50 (fetal mouse metatarsals): 220 nM
O=P([O-])(O)C(O)(C[n+]1cccc(Cc2ccccc2)c1)P(=O)(O)O (stereo not drawn) [Compound 335] | 11000 | 8500 | 430000 | 430000 | 160 | 63400 | IC50 [2]: 70000 nM; activity in gammadelta T cell stimulation (Vγ2Vδ2 T cells; TNF-α release): poor activity; Ki (L. major FPPS; [12]): 160 nM
O=P([O-])(O)C(O)(C[n+]1cccc(F)c1)P(=O)(O)O (stereo not drawn) [Compound 461] | – | – | – | – | – | – | potency in bone resorption (fetal mouse metatarsals): very potent; IC50 (fetal mouse metatarsals; Mus musculus): 75 nM; IC50 (Dictyostelium discoideum; [3]): 3700 nM; EC50 (Vγ2Vδ2 T cells; [4]): 2700 nM; EC50 (Vγ2Vδ2 T cells; [5]): 2700 nM; Ki (L. major FPPS; [12]): 50 nM
CCCCc1ccc[n+](CC(O)(P(=O)([O-])O)P(=O)(O)O)c1 (stereo not drawn) [Compound 445] | 3000 | 2900 | 5200 | 5200 | 20 | 2500 | –

— patent US7745422B2, “Bisphosphonate compounds and methods for bone resorption diseases, cancer, bone pain, immune disorders, and infectious diseases” (The Board of Trustees of the University of Illinois, priority 2004, dated 2010)
